Results published in US20080096894A1, “Anti-Bacterial Compounds” (ASTON UNIVERSITY, priority 2005, published 2008).

What was measured:
Assay in all cases: MIC, doubling dilution in 96-well microtitre plate
Type in all cases: cell-based
[1] = test system: Micrococcus roseus
Experimental: (§1) The compound was tested as follows. […] The wells were inoculated with organism ([…] of medium containing 10^6 cfu/mL) and the plates were incubated at 37° C. overnight. Where growth of organism occurred this was observed as a small button when viewed from underneath the plate. The MIC was determined as the lowest concentration inhibiting growth.

[2] = test system: Staphylococcus epidermidis NCTC 11047
Experimental: as §1

[3] = test system: Citrobacter diversus 2046E
Experimental: as §1

[4] = test system: Salmonella enteriditis
Experimental: as §1

[5] = test system: Pseudomonas aeruginosa ATCC 15692 (PA01)
Experimental: as §1

[6] = test system: Salmonella Cambridge
Experimental: as §1

## NC(=NN=Cc1ccc([N+](=O)[O-])o1)c1cc[n+]([O-])cc1 (mixture of isomers) [Compound 4PYOfi]
[1]
  MIC: 8 to 16 µg/mL
[2]
  MIC: 2 to 4 µg/mL
[3]
  MIC: 32 to 64 µg/mL
[4]
  MIC: 32 to 64 µg/mL
[5]
  MIC: 32 to 64 µg/mL
[6]
  MIC: 16 to 32 µg/mL
